The supplement of paper PMC10307832

Key:
Test in all cases: relative viability (nuclei count vs DMSO), 5 days (fraction); higher = more cells survive
IMD-0354 + Palbociclib = compound: O=C(Nc1cc(C(F)(F)F)cc(C(F)(F)F)c1)c1cc(Cl)ccc1O [IMD-0354] + CC(=O)c1c(C)c2cnc(Nc3ccc(N4CCNCC4)cn3)nc2n(C2CCCC2)c1=O [Palbociclib] (partner 0.5 µM)
Procedure, shortened: (§1)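 Relative viability is defined as nuclei in treated wells over nuclei in vehicle wells. Duplicate plates were run and medians reported. Lung cancer cell lines in 1536-well plates were dosed by pin tool one day after seeding, with one drug or with a fixed anchor-drug dose plus five library-drug doses (not always all listed) in √10 steps, and nuclei were counted after 5 days.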

IMD-0354 + Phenformin = compound: O=C(Nc1cc(C(F)(F)F)cc(C(F)(F)F)c1)c1cc(Cl)ccc1O [IMD-0354] + N=C(N)NC(=N)NCCc1ccccc1 [Phenformin] (partner 250 µM)
Procedure, shortened: as §1

IMD-0354 + Luminespib = compound: O=C(Nc1cc(C(F)(F)F)cc(C(F)(F)F)c1)c1cc(Cl)ccc1O [IMD-0354] + CCNC(=O)c1noc(-c2cc(C(C)C)c(O)cc2O)c1-c1ccc(CN2CCOCC2)cc1 [Luminespib] (partner 0.01 µM)
Procedure, shortened: as §1

CX-5461 + Lapatinib = compound: Cc1cnc(CNC(=O)c2c(=O)c3ccc(N4CCCN(C)CC4)nc3n3c2sc2ccccc23)cn1 [CX-5461] + CS(=O)(=O)CCNCc1ccc(-c2ccc3ncnc(Nc4ccc(OCc5cccc(F)c5)c(Cl)c4)c3c2)o1 [Lapatinib] (partner 2 µM)
Procedure, shortened: as §1

Cell Line	relative viability (IMD-0354 + Palbociclib; first compound 0.04 µM)	relative viability (IMD-0354 + Palbociclib; first compound 0.1265 µM)	relative viability (IMD-0354 + Palbociclib; first compound 0.4 µM)	relative viability (IMD-0354 + Palbociclib; first compound 1.265 µM)	relative viability (IMD-0354 + Palbociclib; first compound 4 µM)	relative viability (IMD-0354 + Phenformin; first compound 0.04 µM)	relative viability (IMD-0354 + Phenformin; first compound 0.1265 µM)	relative viability (IMD-0354 + Phenformin; first compound 0.4 µM)	relative viability (IMD-0354 + Phenformin; first compound 1.265 µM)	relative viability (IMD-0354 + Phenformin; first compound 4 µM)	relative viability (IMD-0354 + Luminespib; first compound 0.04 µM)	relative viability (IMD-0354 + Luminespib; first compound 0.1265 µM)	relative viability (IMD-0354 + Luminespib; first compound 0.4 µM)	relative viability (IMD-0354 + Luminespib; first compound 1.265 µM)	relative viability (IMD-0354 + Luminespib; first compound 4 µM)	relative viability (CX-5461 + Lapatinib; first compound 0.03162 µM)	relative viability (CX-5461 + Lapatinib; first compound 0.1 µM)	relative viability (CX-5461 + Lapatinib; first compound 1 µM)	relative viability (CX-5461 + Lapatinib; first compound 0.01 µM)	relative viability (CX-5461 + Lapatinib; first compound 0.3162 µM)
NCI-H2342	0.491	0.511	0.499	0.538	0.438	0.632	0.593	0.455	0.4	0.383	0.771	0.746	0.629	0.699	0.388	–	–	–	–	–
LK-2	0.521	0.614	–	0.877	0.185	0.641	0.382	0.41	0.22	0.265	0.195	0.194	0.184	0.195	0.167	1.06	1.01	0.817	–	–
SK-LU-1	0.398	0.394	0.319	0.239	0.296	0.713	0.413	0.303	0.193	0.187	0.178	0.169	0.244	0.149	0.169	0.837	0.852	0.535	0.948	0.96
HCC-366	0.474	0.535	0.259	0.0918	0.0749	0.574	0.562	0.276	0.0732	0.0339	–	–	–	–	–	1	0.812	0.0982	1.14	0.04
201T	0.35	0.387	0.294	0.375	0.28	0.524	0.465	0.322	0.286	0.303	1.19	1.04	0.678	0.638	0.278	1.06	1.03	0.981	1.01	0.82
HCC-827	0.514	0.491	0.407	0.36	0.222	0.411	0.353	0.228	0.178	0.174	0.686	0.589	0.589	0.235	0.129	0.223	0.22	0.19	0.198	0.203
NCI-H441	0.214	0.196	0.366	0.12	0.146	0.79	0.693	0.45	0.177	0.262	0.279	0.409	0.234	0.214	0.2	–	–	–	–	–
NCI-H1703	–	–	–	–	–	–	–	–	–	–	–	–	–	–	–	1.45	1.1	0.502	1.2	1.14
Calu-6	–	–	–	–	–	–	–	–	–	–	–	–	–	–	–	1.16	0.964	0.405	1.04	0.998
HCC-78	0.538	0.506	0.322	0.383	0.424	0.667	0.697	0.398	0.439	0.292	–	–	–	–	–	0.916	0.734	0.565	1	0.244
NCI-H1299	–	–	–	–	–	–	–	–	–	–	–	–	–	–	–	0.975	1	0.866	0.945	0.982
LCLC-103H	0.469	0.468	0.459	0.386	0.331	0.39	0.304	0.197	0.214	0.177	1.1	0.894	0.744	0.432	0.222	–	–	–	–	–
ChaGo-K-1	0.844	0.917	0.55	0.473	0.236	0.584	0.544	0.318	0.225	0.199	0.639	0.566	0.364	0.223	0.228	–	–	–	–	–
NCI-H1648	0.278	0.227	0.224	0.21	0.259	–	–	–	–	–	–	–	–	–	–	–	–	–	–	–
NCI-H596	–	–	–	–	–	0.852	0.748	0.547	0.898	0.318	1.01	1	0.508	0.306	0.275	1.09	0.96	0.628	1.07	1.1
NCI-H1563	–	–	–	–	–	0.688	0.622	0.53	0.329	0.37	0.232	0.57	0.5	0.492	0.206	0.852	0.661	0.477	0.889	0.683
A549	–	–	–	–	–	0.23	0.106	0.0873	0.03	0.0515	–	–	–	–	–	1.04	0.698	0.0911	0.989	0.867
NCI-H522	1.14	0.87	0.881	0.994	0.458	0.614	0.666	0.464	0.61	0.383	1.03	0.908	1.2	0.813	0.505	–	–	–	–	–
NCI-H1623	–	–	–	–	–	0.565	0.621	0.459	0.364	0.385	0.405	0.369	0.461	0.332	0.287	–	–	–	–	–
SW 900	0.517	0.629	0.478	0.187	0.248	0.661	0.48	0.302	0.185	0.202	0.187	0.162	0.178	0.143	0.161	–	–	–	–	–
IA-LM	–	–	–	–	–	–	–	–	–	–	–	–	–	–	–	0.748	0.715	0.475	0.692	0.669
EBC-1	–	–	–	–	–	–	–	–	–	–	–	–	–	–	–	0.191	0.244	0.208	0.214	0.2
